From paper PMC4782294, “ERK mediated upregulation of death receptor 5 overcomes the lack of p53 functionality in the diaminothiazole DAT1 induced apoptosis in colon cancer models: efficiency of DAT1 in Ras-Raf mutated cells” (Molecular Cancer, 2016) come the findings set out here.

One data set deals with HT 29. Put plainly: MTT cytotoxicity assay. The conditions noted are these: Homo sapiens, HT 29, 48 h. Type of data set: cell-based. On the procedure:
(§1) Cells were seeded in 96 well plates. At about70 % confluency, they were treated with different concentrations of drugs either individually or in combination. After 48 h, MTT assay was done (Mossmann 1983) and absorbance was measured at 570 nm (Biorad Microplate reader). Percentage viability was plotted against the respective concentrations of the drugs and half inhibitory concentration (IC50) was calculated with the non linear regression programme of Origin.

The next data set deals with HCT116 p53 -/-. Put plainly: MTT cytotoxicity assay. It counts as cell-based. The following applies: Homo sapiens, HCT-116, 48 h. On the procedure:
as §1

In the next data set the test system is SW 480. Nature of the data set: MTT cytotoxicity assay. The conditions noted are these: Homo sapiens, SW480, SW 480, 48 h. It counts as cell-based. Here is the method:
as §1

For another data set, the system named is SW 620. Put plainly: MTT cytotoxicity assay. Type of data set: cell-based. The conditions noted are these: Homo sapiens, SW 620, 48 h. Here is the method:
as §1

The subject of data set [1] is HCT116. Put plainly: MTT cytotoxicity assay. The following applies: Homo sapiens, HCT-116, HCT116, 48 h. Type of data set: cell-based. Here is the method:
as §1

Another data set concerns caspase 8. Nature of the data set: Caspase 8 activation by western blotting. The following applies: cell lines irrespective of their p53 status. It counts as cell-based. Here is the method:
(§2) Cells were grown to 70–80 % confluency in 60 mm culture dishes. After drug treatment, they were harvested and lysed. Protein samples from tissues were collected by homogenizing the tissue in the presence of lysis buffer, followed by centrifugation for 20 min. The protein samples were run in a 10–12 % gel and transferred on to a PVDF membrane. The membranes were probed with specific primary antibodies (1:1000) overnight followed by secondary antibodies conjugated with horse radish peroxidase/alkaline phosphatase (1:2000) for 1 hr at room temperature and were developed by chemiluminescence or alkaline phosphatase method.

In data set [2] the test system is Colo 320 DM. Put plainly: DAPI staining for detection of apoptosis (chromatin condensation). Type of data set: cell-based. The conditions noted are these: approximately 1.5 times the IC50 concentration, 24 h. On the procedure:
(§3) The cells were grown on coverslips in 24 well plates and incubated with respective drug or inhibitor for 24 h. They were then washed with PBS, fixed with chilled methanol-EDTA for 10 min and rehydrated with PBS for 10 min at room temperature. Successively, the cells were treated with DAPI (0.5 μg/ml) for 2 min in the dark. The coverslips were then mounted on fluoromount G and viewed at 40X in the UV region using a fluorescence microscope (Olympus IX71).

A further data set concerns HCT116 p53 −/−. The data set is described as above. Type of data set: cell-based. On the procedure: as §3
The test system of another data set is Caco2. The data set is described as above. Type of data set: cell-based. The conditions noted are these: Caco2, approximately 1.5 times the IC50 concentration, 24 h. Here is the method: as §3
In data set [3] the test system is HCT116. The description is as above. It counts as cell-based. On the procedure:
as §3

The test system of a further data set is ERK. Put plainly: ERK activation by western blotting. It counts as cell-based. On the procedure: as §2
For data set [4], the system named is Swiss Albino mice. Nature of the data set: Acute toxicity study. Type of data set: in vivo. The following applies: for Final weight: after 14 days; for Initial weight: before drug administration. Here is the method:
In acute toxicity studies, Swiss Albino mice were divided in to six groups of six animal each and DAT1 (12–50 mg/kg) was administered intraperitoneally (i.p) and observed for 14 days for signs of weight loss, dehydration or mortality. DAT1 was dissolved in vehicle cremaphor:ethanol (1:1) and diluted in 0.9 % saline.
Swiss Albino mice were divided into 6 groups of 6 mice each and were injected with either DAT1 or vehicle intraperitoneally. […] Group I: 12mg/kg, Group II: 20 mg/kg, Group III: 30 mg/kg, Group IV: 40 mg/kg, Group V: 50 mg/kg

Data set [5] relates to HCT116 p53 −/− xenograft tumours. Put plainly: Colon cancer xenograft study. It counts as in vivo, SCID/NOD mice. On the procedure:
(§4) SCID/NOD mice were divided into groups of ten and allowed to acclimatize. After 5 days, tumours were raised by injecting HCT116 or HCT116 p53 −/− cells (1.5 × 10^5 cells suspended in PBS) subcutaneously in the inner flank region. Once the tumour volumes reached 20–80 mm^3, drug was administered intraperitoneally, thrice a week at different concentrations.

For a further data set, the system named is HCT116 xenograft tumours. Put plainly: Colon cancer xenograft study. Type of data set: in vivo, SCID/NOD mice. On the procedure:
as §4

The next data set deals with Caco 2. Nature of the data set: MTT cytotoxicity assay. The conditions noted are these: Homo sapiens, Caco 2, 48 h. Type of data set: cell-based. On the procedure: as §1
Data set [6] relates to Colo 320 DM. Put plainly: MTT cytotoxicity assay. Type of data set: cell-based. The conditions noted are these: Homo sapiens, 48 h. Here is the method: as §1
In a further data set the test system is DR5. Put plainly: DR5 induction by western blotting. Type of data set: cell-based. The conditions noted are these: cells with non functional p53 (HCT116 p53 −/−, SW620, SW480, HT29), ~1.5 X IC50. On the procedure:
as §2

In data set [7] the test system is Swiss Albino mice. Put plainly: Sub-acute toxicity study. It counts as in vivo. The conditions noted are these: for RBC / WBC / ALP / ALT / AST / BUN / Creatinine: 3 months; for ALP / ALT / AST / BUN / Creatinine: serum. On the procedure: In sub-acute toxicity studies, Swiss albino mice were divided into five groups of eight animals each. Three groups of Swiss Albino mice were administered (i.p injection) with 4, 8 or 16 mg/kg DAT1, and the control and vehicle control groups were administered with 0.9 % saline or vehicle respectively. Injections were given every alternate day for the first 10 days and after that, twice weekly for a period of 3 months. After 3 months animals were sacrificed and whole blood, liver and kidney were collected. Hematotoxicity was checked by RBC and WBC count. Hepatotoxicity was measured by monitoring the serum ALT and AST levels. Nephrotoxicity was measured by monitoring BUN and creatinine levels in the serum. ALP activity was measured for detection of liver or bone toxicity.

Turning to `O=c1[nH]cc(F)c(=O)[nH]1` [5 fluoro uracil, 5-fluorouracil], the half-maximal inhibitory concentration (IC50) stood at 20200 ± 770 nM in the data set with HT 29; 19300 ± 1340 nM with HCT116 p53 -/-; 18600 ± 680 nM in the data set with SW 480; 9650 ± 330 nM in the data set with SW 620; 8690 ± 540 nM with HCT116 [1].
As for `COc1ccc(Nc2nc(N)c(C(=O)c3ccccc3)s2)cc1` [DAT1, 4-Amino-5-benzoyl-2-(4-methoxyphenylamino)thiazole], the “caspase 8 activation” value with caspase 8 was “caused caspase 8 activation”. The figures for the “apoptosis (chromosome condensation)” value in the data set with Colo 320 DM [2] and in the data set on Caco2 were 38% and 32%, respectively. The “percentage of apoptotic cells” value in the data set on HCT116 p53 −/− (DAT1 alone, 24 h) is 60%; in the data set with HCT116 p53 −/− (DAT1 in the presence of MEK inhibitor U0126), 5%; with HCT116 [3] (HCT116, DAT1 alone, 24 h) it was 67%; in the data set on HCT116 [3] (HCT116, DAT1 in the presence of MEK inhibitor U0126) it was 3%. The ERK activation entry in the data set on ERK (Colo 320 DM or Caco2 cell lines with wild type Ras or Raf, ~1.5 times IC50) is on record as “unable to activate ERK”. Further, in the data set with ERK (HCT116 and HCT116 p53−/− cells), the P-ERK activation result is reported as “caused P-ERK activation”. The Final weight in the data set on Swiss Albino mice [4] (12 mg/kg i.p.) is reported as 33.1 ± 1.56 g; with Swiss Albino mice [4] (20 mg/kg i.p.), 33.46 ± 3.87 g; in the data set on Swiss Albino mice [4] (30 mg/kg i.p.) it was 29.86 ± 2.82 g; in the data set on Swiss Albino mice [4] (40 mg/kg i.p.), 27.8 ± 2.67 g; in the data set with Swiss Albino mice [4] (50 mg/kg i.p.), 26.12 ± 2.14 g. In addition, the Initial weight is 32.4 ± 1.34 g in the data set on Swiss Albino mice [4] (12 mg/kg i.p.); 32.8 ± 5.44 g in the data set on Swiss Albino mice [4] (20 mg/kg i.p.); 27.2 ± 1.22 g in the data set on Swiss Albino mice [4] (30 mg/kg i.p.); 26.6 ± 2.4 g with Swiss Albino mice [4] (40 mg/kg i.p.); 25.6 ± 2.03 g in the data set with Swiss Albino mice [4] (50 mg/kg i.p.). Besides, the “reduction in tumour inhibition vs parental HCT116” value in [5] (20 mg/kg) is on record as “about 19%”. The tumour inhibition in data set [5] (HCT116 p53 −/− tumours, 20 mg/kg i.p., thrice a week, 28 days) is recorded as 53.4%; in the data set with HCT116 xenograft tumours (HCT116 tumours, 20 mg/kg i.p., thrice a week, 28 days) it was 72.3%. Moreover, the mean tumour volume result in [5] (HCT116 p53−/− xenograft, treatment for 28 days, i.p.) was “reduced the mean tumour volume effectively in a concentration dependent way”; in the data set with HCT116 xenograft tumours (HCT116 xenograft, treatment for 28 days, i.p.) it was “reduced the mean tumour volume effectively in a concentration dependent way”. In addition, the IC50 was found to be 5320 ± 162 nM with Caco 2; 200 ± 80 nM with HT 29; 709 ± 80 nM in the data set with HCT116 p53 -/-; 655 ± 48 nM with Colo 320 DM [6]; 795 ± 90 nM in the data set with SW 480; 420 ± 70 nM with SW 620. Also, the half-inhibitory concentration (IC50) with HCT116 [1] was determined as 300 ± 80 nM. Besides, the DR5 upregulation result with DR5 is listed as “caused DR5 upregulation”. Besides, the RBC was 4.42 ± 0.75 million/mm^3 in the data set with Swiss Albino mice [7] (4 mg/kg i.p.), 4.48 ± 0.34 million/mm^3 with Swiss Albino mice [7] (8 mg/kg i.p.) and 4.475 ± 0.26 million/mm^3 in the data set on Swiss Albino mice [7] (16 mg/kg i.p.). Also, the WBC came out at 8100 ± 1979 per mm^3 in the data set on Swiss Albino mice [7] (4 mg/kg i.p.), 6220 ± 1626.34 per mm^3 with Swiss Albino mice [7] (8 mg/kg i.p.) and 4550 ± 264.575 per mm^3 in the data set on Swiss Albino mice [7] (16 mg/kg i.p.). For the same compound, the ALP is reported as 158.32 ± 8.32 U/L with Swiss Albino mice [7] (4 mg/kg i.p.), 136.48 ± 10.69 U/L with Swiss Albino mice [7] (8 mg/kg i.p.) and 155.61 ± 15.15 U/L with Swiss Albino mice [7] (16 mg/kg i.p.). For the same compound, the ALT in the data set on Swiss Albino mice [7] (4 mg/kg i.p.) is reported as 54.38 ± 4.15 U/L; in the data set on Swiss Albino mice [7] (8 mg/kg i.p.) it was 53.845 ± 4.81 U/L; in the data set on Swiss Albino mice [7] (16 mg/kg i.p.), 148.39 ± 14.55 U/L. The AST worked out at 128 ± 25.1 U/L with Swiss Albino mice [7] (4 mg/kg i.p.), 128.165 ± 1.87 U/L in the data set with Swiss Albino mice [7] (8 mg/kg i.p.) and 162.67 ± 12.73 U/L with Swiss Albino mice [7] (16 mg/kg i.p.). Moreover, the BUN was 29.8 ± 1.25 mg/dL in the data set with Swiss Albino mice [7] (4 mg/kg i.p.) and 29.8 ± 1.27 mg/dL in the data set with Swiss Albino mice [7] (16 mg/kg i.p.). Besides, the Creatinine in the data set on Swiss Albino mice [7] (4 mg/kg i.p.) is recorded as 0.82 ± 0.1 mg/dL; in the data set with Swiss Albino mice [7] (8 mg/kg i.p.), 0.76 ± 0.07 mg/dL; with Swiss Albino mice [7] (16 mg/kg i.p.) it was 0.58 ± 0.09 mg/dL. The body weight change result in the data set on Swiss Albino mice [7] (4, 8 or 16 mg/kg i.p., end of 3 months) was “no significant change in the weight”.
With `CC(=O)O[C@H]1C(=O)[C@@]2(C)[C@H]([C@H](OC(=O)c3ccccc3)[C@]3(O)C[C@H](OC(=O)[C@H](O)[C@@H](NC(=O)c4ccccc4)c4ccccc4)C(C)=C1C3(C)C)[C@]1(OC(C)=O)CO[C@@H]1C[C@@H]2O` [Taxol, paclitaxel], the IC50 with HT 29 was 10 ± 1.4 nM; with HCT116 p53 -/-, 6 ± 2 nM; in the data set with SW 480 it was 31.5 ± 1.4 nM; in the data set with SW 620 it was 24.5 ± 6 nM; in the data set with HCT116 [1], 14 ± 7 nM.
Take `CC[C@]1(O)C[C@@H]2CN(CCc3c([nH]c4ccccc34)[C@@](C(=O)OC)(c3cc4c(cc3OC)N(C)[C@H]3[C@@](O)(C(=O)OC)[C@H](OC(C)=O)[C@]5(CC)C=CCN6CC[C@]43[C@@H]65)C2)C1` [Vinblastine]: the apoptosis induction result is listed as “failed to induce apoptosis” in the data set on HCT116 p53 −/− (0.01 μM, 24 h) and “large apoptotic response” in the data set on HCT116 [3] (HCT116 p53 wild type, 0.01 μM, 24 h). For the same compound, the IC50 turned out to be 1.5 ± 0.7 nM with HT 29; 19.5 ± 0.7 nM with HCT116 p53 -/-; 3380 ± 247 nM in the data set on SW 480; 300 ± 90 nM with SW 620; 4 ± 2 nM in the data set on HCT116 [1].
